What was measured:
[1] = biological target: T1, HCV polymerase (NS5B) type 1b (Hepatitis C virus genotype 1b, UniProt P26663); assay: Assay of enzyme (HCV polymerase) inhibitory activity, type 1b enzyme; format: biochemical, HCV BK strain (type 1b); conditions: HCV polymerase inhibitory activity (IC50), 1b, type 1b enzyme 0.5 μg/ml, 25° C., 60 min
T1 construct: a region encoding NS5B (J Virol 1991 March, 65(3), 1105-13, 544 amino acids after deletion of 47 amino acids on the C-terminal); 6xHis (C); made in house; host or cells: Escherichia coli
In short: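 Polymerase activity was followed as radiolabelled UTP incorporation by E. coli-expressed, His-tagged NS5B of HCV type 1b lacking its last 47 residues. Conditions: 2 μM UTP, 50 μM other NTPs, Mg2+ buffer at pH 7.5, 25 °C for 60 min. Inhibition relative to compound-free reactions gave IC50.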

[2] = biological target: T2, HCV polymerase (NS5B) type 1a (Hepatitis C virus genotype 1a, UniProt P26664); assay: Assay of enzyme (HCV polymerase) inhibitory activity, type 1a enzyme; format: biochemical, HCV type 1a (cloned from the blood of patients); conditions: HCV polymerase inhibitory activity (IC50), 1a, type 1a enzyme 1.5 μg/ml, 25° C., 60 min
T2 construct: made in house; host or cells: Escherichia coli (by the 'similar method' of the 1b enzyme)
In short: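 IC50 values derive from radioactivity of newly synthesized RNA with versus without test compound. The enzyme was C-terminally truncated type 1a NS5B, 1.5 μg/ml, run 60 min at 25° C with 3H-UTP-labelled nucleotides.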

Row | Structure (SMILES) | IC50 [1] [µM] | IC50 [2] [µM]
1 | CC(=O)N1CCN(S(=O)(=O)c2ccc(C(C)C)cc2)[C@@H](C(=O)NCc2ccc(C(C)(C)C(=O)O)cc2)C1 [Example 231, 2-[4-({[(R)-4-acetyl-1-(4-isopropyl-benzenesulfonyl)-piperazine-2-carbonyl]-amino}-methyl)-phenyl]-2-methyl-propionic acid] | > 1 | > 1
2 | CCc1ccc(CNC(=O)[C@H]2CN(C(C)=O)CCN2S(=O)(=O)c2ccc(C(C)C)cc2)cc1 [Example 232, (R)-4-acetyl-1-(4-isopropyl-benzenesulfonyl)-piperazine-2-carboxylic acid 4-ethyl-benzylamide] | 0.1 to 1 | 0.1 to 1
3 | CC(=O)N1CCN(S(=O)(=O)c2ccc(C(C)C)cc2)[C@@H](C(=O)NCc2ccc(C(C)(C)C(=O)N(C)C)cc2)C1 [Example 233, (R)-4-acetyl-1-(4-isopropyl-benzenesulfonyl)-piperazine-2-carboxylic acid 4-(1-dimethylcarbamoyl-1-methyl-ethyl)-benzylamide] | > 1 | > 1
4 | CC(=O)N1CCN(S(=O)(=O)c2ccc(C(C)C)cc2)[C@@H](C(=O)NCc2ccc(C3(CO)CC3)cc2)C1 [Example 234, (R)-4-acetyl-1-(4-isopropyl-benzenesulfonyl)-piperazine-2-carboxylic acid 4-(1-hydroxymethyl-cyclopropyl)-benzylamide] | > 1 | > 1
5 | COC(=O)c1cc(S(=O)(=O)N2CCN(C(C)=O)C[C@@H]2C(=O)NCc2ccc(C(C)C)cc2)ccc1OC [Example 235, 5-[(R)-4-acetyl-2-(4-isopropyl-benzylcarbamoyl)-piperazine-1-sulfonyl]-2-methoxy-benzoic acid methyl ester] | > 1 | > 1
6 | CCc1cc(S(=O)(=O)N2CCN(C(C)=O)C[C@@H]2C(=O)NCc2ccc(C(C)C)cc2)ccc1OC [Example 236, (R)-4-acetyl-1-(3-ethyl-4-methoxy-benzenesulfonyl)-piperazine-2-carboxylic acid 4-isopropyl-benzylamide] | 0.1 to 1 | 0.1 to 1
7 | CC(=O)N1CCN(S(=O)(=O)c2ccc(CC(C)(C)C)cc2)[C@@H](C(=O)NCc2ccc(C(C)C)cc2)C1 [Example 237, (R)-4-acetyl-1-[4-(2,2-dimethyl-propyl)-benzenesulfonyl]-piperazine-2-carboxylic acid 4-isopropyl-benzylamide] | < 0.1 | < 0.1
8 | COC(=O)COc1ccc(S(=O)(=O)N2CCN(C(C)=O)C[C@@H]2C(=O)NCc2ccc(C(C)C)cc2)cc1 [Example 238, {4-[(R)-4-acetyl-2-(4-isopropyl-benzylcarbamoyl)-piperazine-1-sulfonyl]-phenoxy}-acetic acid methyl ester] | 0.1 to 1 | > 1
9 | COc1ccc(S(=O)(=O)N2CCN(C(C)=O)C[C@@H]2C(=O)NCc2ccc(C(C)C)cc2)cc1C#N [Example 239, (R)-4-acetyl-1-(3-cyano-4-methoxy-benzenesulfonyl)-piperazine-2-carboxylic acid 4-isopropyl-benzylamide] | 0.1 to 1 | > 1
10 | COc1ccc(S(=O)(=O)N2CCN(C(C)=O)C[C@@H]2C(=O)NCc2ccc(C(C)C)cc2)cc1C(C)(C)C [Example 240, (R)-4-acetyl-1-(3-tert-butyl-4-methoxy-benzenesulfonyl)-piperazine-2-carboxylic acid 4-isopropyl-benzylamide] | < 0.1 | 0.1 to 1
11 | COc1ccc(S(=O)(=O)N2CCN(C(C)=O)C[C@@H]2C(=O)NCc2ccc(C(C)C)cc2)cc1C1CCCC1 [Example 241, (R)-4-acetyl-1-(3-cyclopentyl-4-methoxy-benzenesulfonyl)-piperazine-2-carboxylic acid 4-isopropyl-benzylamide] | 0.1 to 1 | 0.1 to 1
12 | CC(C)c1ccc(CNC(=O)[C@H]2CN(C(=O)Cn3nccn3)CCN2S(=O)(=O)c2ccc(C(F)(F)F)cc2)cc1 [Example 242, (R)-4-(2-[1,2,3]triazol-2-yl-acetyl)-1-(4-trifluoromethyl-benzenesulfonyl)-piperazine-2-carboxylic acid 4-isopropyl-benzylamide] | 0.1 to 1 | 0.1 to 1
13 | CC(C)c1ccc(CNC(=O)[C@H]2CN(C(=O)NCc3ccccc3)CCN2S(=O)(=O)c2ccc(C(F)(F)F)cc2)cc1 [Example 243, (R)-4-(4-trifluoromethyl-benzenesulfonyl)-piperazine-1,3-dicarboxylic acid 1-benzylamide 3-(4-isopropyl-benzylamide)] | > 1 | > 1
14 | CC(C)c1ccc(CNC(=O)[C@H]2CN(c3nc(C(=O)O)cs3)CCN2S(=O)(=O)c2ccc(C(F)(F)F)cc2)cc1 [Example 244, 2-[(R)-3-(4-isopropyl-benzylcarbamoyl)-4-(4-trifluoromethyl-benzenesulfonyl)-piperazin-1-yl]-thiazole-4-carboxylic acid] | 0.1 to 1 | 0.1 to 1
15 | CCOC(=O)COc1ccc(NC(=O)N2CCN(S(=O)(=O)c3ccc(C(F)(F)F)cc3)[C@@H](C(=O)NCc3ccc(C(C)C)cc3)C2)cc1 [Example 245, (4-{[(R)-3-(4-isopropyl-benzylcarbamoyl)-4-(4-trifluoromethyl-benzenesulfonyl)-piperazine-1-carbonyl]-amino}-phenoxy)-acetic acid ethyl ester] | 0.1 to 1 | > 1
16 | CC(C)c1ccc(CNC(=O)[C@H]2CN(C(=O)Nc3ccc(OCC(=O)O)cc3)CCN2S(=O)(=O)c2ccc(C(F)(F)F)cc2)cc1 [Example 246, (4-{[(R)-3-(4-isopropyl-benzylcarbamoyl)-4-(4-trifluoromethyl-benzenesulfonyl)-piperazine-1-carbonyl]-amino}-phenoxy)-acetic acid] | 0.1 to 1 | > 1
17 | CCCc1ccc(S(=O)(=O)N2CCN(C(C)=O)C[C@@H]2C(=O)NCc2ccc(CC)cc2)cc1 [Example 247, (R)-4-acetyl-1-(4-propyl-benzenesulfonyl)-piperazine-2-carboxylic acid 4-ethyl-benzylamide] | < 0.1 | 0.1 to 1
18 | COc1ccc(S(=O)(=O)N2CCN(C(C)=O)C[C@@H]2C(=O)NCc2ccc(C(C)C)cc2)cc1C(=O)O [Example 248, 5-[(R)-4-acetyl-2-(4-isopropyl-benzylcarbamoyl)-piperazine-1-sulfonyl]-2-methoxy-benzoic acid] | 0.1 to 1 | > 1
19 | CC(=O)N1CCN(S(=O)(=O)c2ccc(OCC(=O)O)cc2)[C@@H](C(=O)NCc2ccc(C(C)C)cc2)C1 [Example 249, {4-[(R)-4-acetyl-2-(4-isopropyl-benzylcarbamoyl)-piperazine-1-sulfonyl]-phenoxy}-acetic acid] | > 1 | > 1
20 | COC(=O)CCOc1ccc(S(=O)(=O)N2CCN(C(C)=O)C[C@@H]2C(=O)NCc2ccc(C(C)C)cc2)cc1 [Example 250, 3-{4-[(R)-4-acetyl-2-(4-isopropyl-benzylcarbamoyl)-piperazine-1-sulfonyl]-phenoxy}-propionic acid methyl ester] | 0.1 to 1 | 0.1 to 1
21 | CC(=O)N1CCN(S(=O)(=O)c2ccc(O)cc2)[C@@H](C(=O)NCc2ccc(C(C)C)cc2)C1 [Example 251, (R)-4-acetyl-1-(4-hydroxy-benzenesulfonyl)-piperazine-2-carboxylic acid 4-isopropyl-benzylamide] | > 1 | > 1
